Experimental data taken from ChEMBL document CHEMBL1159027, “Microcolins A and B, new immunosuppressive peptides from the blue-green alga Lyngbya majuscula” (J Nat Prod, 1992).

Legend:
[1] = Toxicity in mouse lymphocytes; assay type: cell-based, Lymphocyte; conditions: read-out: TC50 (the source's name)
Lymphocyte = assay: Immunosuppressive activity in mouse lymphocyte assessed as suppression of two-way mixed reaction; assay type: functional, cell-based

Structure (SMILES) | CC50 [1] [nM] | EC50 (Lymphocyte) [nM]
CCCC[C@@H](C)C[C@@H](C)C(=O)N(C)[C@@H](CC(C)C)C(=O)N[C@H](C(=O)N(C)[C@H](C(=O)N1C[C@@H](O)C[C@H]1C(=O)N1C(=O)C=C[C@@H]1C)C(C)C)[C@H](C)OC(C)=O [MICROCOLIN A] | 22.6 | 1.5
CCCC[C@@H](C)C[C@@H](C)C(=O)N(C)[C@@H](CC(C)C)C(=O)N[C@H](C(=O)N(C)[C@H](C(=O)N1CCC[C@H]1C(=O)N1C(=O)C=C[C@@H]1C)C(C)C)[C@H](C)OC(C)=O [MICROCOLIN B] | 191 | 42.7
